The results in this text go back to patent publication US8722727B2, “Antifungal agents” (Seynix, Inc., priority 2008, dated 2014).

T1 sequence (O13428 1-1897): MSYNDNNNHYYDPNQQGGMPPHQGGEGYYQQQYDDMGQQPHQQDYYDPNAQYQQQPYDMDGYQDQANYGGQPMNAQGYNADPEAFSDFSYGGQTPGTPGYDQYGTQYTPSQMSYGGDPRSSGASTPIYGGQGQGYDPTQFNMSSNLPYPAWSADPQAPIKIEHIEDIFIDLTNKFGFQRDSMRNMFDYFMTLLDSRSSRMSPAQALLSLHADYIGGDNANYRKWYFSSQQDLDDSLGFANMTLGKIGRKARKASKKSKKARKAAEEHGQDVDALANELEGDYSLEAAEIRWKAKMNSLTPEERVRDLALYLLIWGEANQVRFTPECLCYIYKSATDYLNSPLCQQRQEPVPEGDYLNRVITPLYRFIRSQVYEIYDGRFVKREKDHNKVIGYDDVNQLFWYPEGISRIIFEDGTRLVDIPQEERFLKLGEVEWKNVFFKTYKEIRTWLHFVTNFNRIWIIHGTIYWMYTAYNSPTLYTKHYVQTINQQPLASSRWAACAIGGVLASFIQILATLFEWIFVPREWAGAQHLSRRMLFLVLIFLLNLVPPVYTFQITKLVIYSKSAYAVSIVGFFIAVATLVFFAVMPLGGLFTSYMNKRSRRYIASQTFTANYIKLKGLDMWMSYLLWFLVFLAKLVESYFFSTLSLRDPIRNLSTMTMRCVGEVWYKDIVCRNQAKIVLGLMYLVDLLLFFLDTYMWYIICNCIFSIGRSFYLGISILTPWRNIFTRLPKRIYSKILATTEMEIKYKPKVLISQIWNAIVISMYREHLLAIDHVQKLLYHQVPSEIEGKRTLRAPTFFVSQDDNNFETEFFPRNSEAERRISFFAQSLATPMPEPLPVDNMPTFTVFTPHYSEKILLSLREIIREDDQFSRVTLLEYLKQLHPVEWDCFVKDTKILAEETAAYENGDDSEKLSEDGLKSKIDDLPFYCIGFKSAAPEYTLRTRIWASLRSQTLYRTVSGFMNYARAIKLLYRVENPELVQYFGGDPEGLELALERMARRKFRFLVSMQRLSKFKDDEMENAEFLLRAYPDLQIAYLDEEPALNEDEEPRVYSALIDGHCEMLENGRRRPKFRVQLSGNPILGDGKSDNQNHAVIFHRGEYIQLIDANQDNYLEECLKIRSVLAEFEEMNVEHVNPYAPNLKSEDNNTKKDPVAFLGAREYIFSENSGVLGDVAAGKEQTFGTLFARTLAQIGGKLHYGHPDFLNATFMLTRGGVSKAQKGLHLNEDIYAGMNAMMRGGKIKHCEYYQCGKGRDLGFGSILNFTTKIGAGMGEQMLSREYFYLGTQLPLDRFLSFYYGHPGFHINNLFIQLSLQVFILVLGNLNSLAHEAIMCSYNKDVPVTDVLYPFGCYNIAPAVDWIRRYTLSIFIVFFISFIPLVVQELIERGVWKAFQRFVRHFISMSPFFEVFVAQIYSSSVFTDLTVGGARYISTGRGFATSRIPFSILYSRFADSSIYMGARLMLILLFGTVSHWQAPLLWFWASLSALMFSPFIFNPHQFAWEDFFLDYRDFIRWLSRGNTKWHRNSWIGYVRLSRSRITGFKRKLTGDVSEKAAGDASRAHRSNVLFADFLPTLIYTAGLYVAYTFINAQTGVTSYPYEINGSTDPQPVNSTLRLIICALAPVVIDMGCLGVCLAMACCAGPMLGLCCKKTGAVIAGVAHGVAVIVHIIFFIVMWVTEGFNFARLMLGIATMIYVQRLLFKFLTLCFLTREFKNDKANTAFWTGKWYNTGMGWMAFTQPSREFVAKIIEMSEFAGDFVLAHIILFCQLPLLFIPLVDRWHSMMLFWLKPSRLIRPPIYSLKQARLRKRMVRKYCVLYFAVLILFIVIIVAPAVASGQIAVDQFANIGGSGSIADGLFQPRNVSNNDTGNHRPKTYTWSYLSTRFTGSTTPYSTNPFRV
T1 sequence (O42825 1-195 partner limits assumed): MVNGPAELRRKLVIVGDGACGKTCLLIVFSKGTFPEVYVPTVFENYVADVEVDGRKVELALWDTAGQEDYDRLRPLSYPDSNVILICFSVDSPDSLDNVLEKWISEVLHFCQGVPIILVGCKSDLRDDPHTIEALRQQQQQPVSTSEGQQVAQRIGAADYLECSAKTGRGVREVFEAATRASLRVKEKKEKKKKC

The test has as its target T1, glucan synthase (GS) (Candida albicans, UniProt O13428).
T1 construct: Extraction of GS activity from membranes was performed at a protein concentration of 5 mg/mL in extraction buffer; endogenous in cells; host or cells: Candida albicans MY1055 (membrane fraction, detergent extraction, product entrapment)
The test is described as follows: Glucan synthase inhibition (polymerization assay, 96-well). To be noted: glucan synthase prepared from Candida albicans MY1055; 60 min incubation at 22° C.; read-out: Candida Albicans GS IC50 (ng/mL) (converted). It counts as biochemical. The procedure:
The in vitro evaluation of glucan synthase inhibitory activity of compounds was measured in a polymerization assay in 96-well format. Each well contained 100 μL of ^3H-UDPG at 0.5 mM (6000 to 8000 dpm/nmol), 50 mM HEPES pH 7.5 (Sigma), 10% w/v glycerol (Sigma), 1.5 mg/mL bovine serum albumin (Sigma A 9647. Lot 44H0190), 25 mM KF (Fisher), 1 mM EDTA (Gibco ULTRAPURE), 25 μM GTP-γ-S, enzyme sufficient to give 3 to 6 nmoles incorporation during the 60 min incubation at 22° C., and test compound added from wells in 3-fold serial dilutions in 100% DMSO (1 μL/well). The reaction was stopped by the addition of 100 μL of 20% trichloroacetic acid. Plates were chilled for a minimum of 10 min, and precipitated glucan collected by filtration on GF/C plates (Packard UNIFILTER®-96), washed with 5 cycles of water (about 1 mL/well each cycle) using a Packard FILTERMATE HARVESTER. 40 μL/well scintillation fluid (Packard ULTIMA GOLD TM-XR) was added and the sealed plates counted in a WALLAC BETA counter in top-counting mode at an efficiency of approximately 40%.
Stock solutions were stored at 10 mg/mL in DMSO at −20° C. For each new enzyme preparation, the initial titration performed started at 1 mg/mL, which was prepared by making a 10-fold dilution in DMSO (5 μL to 50 μL). 40 μL of this stock was placed in column 12 of a round-bottomed 96-well microtiter plate. 40 μL DMSO was added to columns 1 to 11 in the same row and ten 3-fold serial dilutions performed, by transferring 20 μL from column 12 to column 11 etc., with 4 mixings before each transfer. No test compound was transferred to from column 2 to column 1. Duplicate aliquots of 1 μL of all 12 dilutions were then transferred to the side walls of a 96-well Bioblock 1.1 mL plate (Fisher brand) to create two rows. Graphs of the primary data were created in PRISM software (the average of two determinations) using PRISM's curve fitting program (sigmoidal dose response non-linear regression). The amount of compound required to inhibit glucan synthase activity by 50% in this assay (IC50-ng/mL) was calculated.
Routine analysis was performed with glucan synthase (GS) prepared from Candida albicans MY1055 by the following procedure: MY1055 was grown in 10 liters YPD medium (10 g yeast extract, 20 g tryptone, 20 g glucose per liter) with vigorous shaking at 30° C., to early stationary phase. Cells were harvested by centrifugation, the pellet was washed and frozen at −70° C. until breakage. Thawed pellets were shaken with an equal volume of breakage buffer (50 mM HEPES pH 7.4, 10% glycerol, 1 mM EDTA, 1 mM PMSF, 1 mM DTT) and 4 times their weight of 0.5 mm acid washed glass beads for 2 hours at 4° C. Extent of breakage was assessed visually at 40× magnification. After low speed centrifugation to remove cell debris, the supernatant was centrifuged at 100,000×g for 60 min. to separate membranes plus ribosomes from cytoplasmic components. Membranes were further washed two additional times with breakage buffer using the same centrifugation conditions and finally suspended in breakage buffer at 25 to 30 mg/mL protein (Biorad) for storage at −70° C. Extraction of GS activity from membranes was performed at a protein concentration of 5 mg/mL in extraction buffer (50 mM NaPO4 pH 7.5, 0.1 M KCl, 0.1M Na citrate, 20% glycerol, 5 μM GTP-γ-S, 1 mM DTT, 1 mM PMSF, 3 μg/mL pepstatin) plus 0.25% W1 by gentle mixing at 4° C. for 60 min, followed by centrifugation at 100,000×g for 60 min. After centrifugation, clear supernatant was removed from a pellet consisting of a hard layer usually with small amounts of gelatinous unextracted membranes above it.
Trapping was initiated immediately by 5-fold dilution in trapping buffer (50 mM HEPES pH 7.5, 10 mM KF, 1 mM EDTA, 2 mg/mL BSA) plus 2.5 mM UDPG and 10 μM GTP-γ-S. After incubation at 25° C. for 60 to 90 minutes, glucan was harvested by low speed centrifugation (3,000×g, 10 min). […]
On to `CCN[C@@](C)(CO[C@H]1[C@H](n2nnc(N)n2)C[C@@]23COC[C@]1(C)[C@@H]2CC[C@H]1C3=CC[C@@]2(C)[C@H](C(=O)O)[C@@](C)([C@H](C)C(C)C)CC[C@]12C)C(C)(C)C` [Example 20, (1S,4aR,6aS,7R,8R,10aR,10bR,12aR,14R,15R)-14-(5-amino-2H-tetrazol-2-yl)-8-[(1R)-1,2-dimethylpropyl]-15-[[(2R)-2-(ethylamino)-2,3,3-trimethylbutyl]oxy]-1,6,6a,7,8,9,10,10a,10b,11,12,12a-dodecahydro-1,6a,8,10a-tetramethyl-4H-1,4a-propano-2H-phenanthro[1,2-c]pyran-7-carboxylic acid], for which the IC50 is 0.0043 µM.

Regarding `CC(C)[C@@H](C)[C@@]1(C)CC[C@]2(C)[C@H]3CC[C@@H]4[C@@]5(COC[C@@]4(C)[C@@H](OCC(C)(C(C)C)N(C)C)[C@H](n4ncnn4)C5)C3=CC(=O)[C@@]2(C)[C@@H]1C(=O)O` (stereo partly drawn) [Example 4B, (1S,4aR,6aS,7R,8R,10aR,10bR,12aR,14R,15R)-15-[2-(dimethylamino)-2,3-dimethylbutoxy]-8-[(1R)-1,2-dimethylpropyl]-14-(2H-tetrazol-2-yl)-1,6,6a,7,8,9,10,10a,10b,11,12,12a-dodecahydro-1,6a,8,10a-tetramethyl-6-oxo-4H-1,4a-propano-2H-phenanthro[1,2-c]pyran-7-carboxylic acid], the IC50 was 0.0631 µM. For `CC(C)[C@@H](C)[C@@]1(C)CC[C@]2(C)[C@H]3CC[C@@H]4[C@@]5(COC[C@@]4(C)[C@@H](OC[C@@](C)(C(C)C)N(C)C)[C@H](n4nnc(N)n4)C5)C3=CC[C@@]2(C)[C@@H]1C(=O)O` [Example 8, (1S,4aR,6aS,7R,8R,10aR,10bR,12aR,14R,15R)-14-(5-amino-2H-tetrazol-2-yl)-15-[[(2R)-2-(dimethylamino)-2,3-dimethylbutyl]oxy]-8-[(1R)-1,2-dimethylpropyl]-1,6,6a,7,8,9,10,10a,10b,11,12,12a-dodecahydro-1,6a,8,10a-tetramethyl-4H-1,4 a-propano-2H-phenanthro[1,2-c]pyran-7-carboxylic acid], the IC50 was 0.0132 µM. For `CC(C)[C@@H](C)[C@@]1(C)CC[C@]2(C)[C@H]3CC[C@@H]4[C@@]5(COC[C@@]4(C)[C@@H](OC[C@](C)(N)C(C)C)[C@H](n4nnnc4N)C5)C3=CC[C@@]2(C)[C@@H]1C(=O)O` [Example 9, (1S,4aR,6aS,7R,8R,10aR,10bR,12aR,14R,15R)-15-[[(2R)-2-amino-2,3-dimethylbutyl]oxy]-14-(5-amino-1H-tetrazol-1-yl)-8-[(1R)-1,2-dimethylpropyl]-1,6,6a,7,8,9,10,10a,10b,11,12,12a-dodecahydro-1,6a,8,10a-tetramethyl-4H-1,4a-propano-2H-phenanthro[1,2-c]pyran-7-carboxylic acid] the value was 0.0565 µM; for `CC(C)[C@@H](C)[C@@]1(C)CC[C@]2(C)[C@H]3CC[C@@H]4[C@@]5(COC[C@@]4(C)[C@@H](OCCN)[C@H](n4cnnn4)C5)C3=CC[C@@]2(C)[C@@H]1C(=O)O` [Example 104, (1S,4aR,6aS,7R,8R,10aR,10bR,12aR,14R,15R)-15-(2-aminoethoxy)-8-[(1R)-1,2-dimethylpropyl]-14-(1H-tetrazol-1-yl)-1,6,6a,7,8,9,10,10a,10b,11,12,12a-dodecahydro-1,6a,8,10a-tetramethyl-4H-1,4a-propano-2H-phenanthro[1,2-c]pyran-7-carboxylic acid], 0.118 µM.

With `CCCN[C@@](C)(CO[C@H]1[C@H](n2nnc(N)n2)C[C@@]23COC[C@]1(C)[C@@H]2CC[C@H]1C3=CC[C@@]2(C)[C@H](C(=O)O)[C@@](C)([C@H](C)C(C)C)CC[C@]12C)C(C)C` [Example 55, (1S,4aR,6aS,7R,8R,10aR,10bR,12aR,14R,15R)-14-(5-amino-2H-tetrazol-2-yl)-15-[[(2R)-2,3-dimethyl-2-(propylamino)butyl]oxy]-8-[(1R)-1,2-dimethylpropyl]-1,6,6a,7,8,9,10,10a,10b,11,12,12a-dodecahydro-1,6a,8,10a-tetramethyl-4H-1,4a-propano-2H-phenanthro[1,2-c]pyran-7-carboxylic acid], the IC50 was 0.0115 µM. Regarding `CN[C@](C)(CO[C@H]1[C@H](n2nnc(N)n2)C[C@@]23COC[C@]1(C)[C@@H]2CC[C@H]1C3=CC[C@@]2(C)[C@H](C(=O)O)[C@@](C)([C@H](C)C(C)C)CC[C@]12C)C(C)(C)C` [Example 112, (1S,4aR,6aS,7R,8R,10aR,10bR,12aR,14R,15R)-14-(5-amino-2H-tetrazol-2-yl)-8-[(1R)-1,2-dimethylpropyl]-15-[[(2S)-2,3,3-trimethyl-2-(methylamino)butyl]oxy]-1,6,6a,7,8,9,10,10a,10b,11,12,12a-dodecahydro-1,6a,8,10a-tetramethyl-4H-1,4a-propano-2H-phenanthro[1,2-c]pyran-7-carboxylic acid], the IC50 is 0.00878 µM. As to `CCC(N)(CC)CO[C@H]1[C@H](n2nnc(N)n2)C[C@@]23COC[C@]1(C)[C@@H]2CC[C@H]1C3=CC[C@@]2(C)[C@H](C(=O)O)[C@@](C)([C@H](C)C(C)C)CC[C@]12C` [Example 23, (1S,4aR,6aS,7R,8R,10aR,10bR,12aR,14R,15R)-15-(2-amino-2-ethylbutoxy)-14-(5-amino-2H-tetrazol-2-yl)-8-[(1R)-1,2-dimethylpropyl]-1,6,6a,7,8,9,10,10a,10b,11,12,12a-dodecahydro-1,6a,8,10a-tetramethyl-4H-1,4a-propano-2H-phenanthro[1,2-c]pyran-7-carboxylic acid], the IC50 was 0.00763 µM. Consider `CN[C@@](C)(CO[C@H]1[C@H](n2nnc(NC(C)=O)n2)C[C@@]23COC[C@]1(C)[C@@H]2CC[C@H]1C3=CC[C@@]2(C)[C@H](C(=O)O)[C@@](C)([C@H](C)C(C)C)CC[C@]12C)C(C)C` [Example 39B, (1S,4aR,6aS,7R,8R,10aR,10bR,12aR,14R,15R)-14-[5-(acetylamino)-2H-tetrazol-2-yl]-15-[[(2R)-2,3-dimethyl-2-(methylamino)butyl]oxy]-8-[(1R)-1,2-dimethylpropyl]-1,6,6a,7,8,9,10,10a,10b,11,12,12a-dodecahydro-1,6a,8,10a-tetramethyl-4H-1,4a-propano-2H-phenanthro[1,2-c]pyran-7-carboxylic acid], for which the IC50 is 0.0155 µM. On to `CNC(C)(CCF)CO[C@H]1[C@H](n2nnc(N)n2)C[C@@]23COC[C@]1(C)[C@@H]2CC[C@H]1C3=CC[C@@]2(C)[C@H](C(=O)O)[C@@](C)([C@H](C)C(C)C)CC[C@]12C` (stereo partly drawn) [Example 129, (1S,4aR,6aS,7R,8R,10aR,10bR,12aR,14R,15R)-14-(5-amino-2H-tetrazol-2-yl)-8-[(1R)-1,2-dimethylpropyl]-15-[4-fluoro-2-methyl-2-(methylamino)butoxy]-1,6,6a,7,8,9,10,10a,10b,11,12,12a-dodecahydro-1,6a,8,10a-tetramethyl-4H-1,4a-propano-2H-phenanthro[1,2-c]pyran-7-carboxylic acid], for which the IC50 is 0.00743 µM.
